Molecular target: TrkA kinase (Homo sapiens (Human), UniProt P04629)
Assay: HTRF assay for inhibitory activity (IC50) against NTRK kinase, TrkA
Assay type: biochemical
Conditions: Table 1, ATP 40 μM, kinase 0.5 nM
Protocol: 1. Assay for Inhibitory Activity (IC50) Against NTRK Kinase
A testing platform for TrkA, TrkB and TrkC kinase activity was established based on Homogeneous Time-Resolved Fluorescence (HTRF) assay, and the activities of the compounds were tested using the platform. The compounds were subjected to three-fold gradient dilution with 100% DMSO with a starting concentration of 1 mM (11 concentrations in total). 4 μL of diluted sample for each concentration was added to 96 μL of reaction buffer (50 mM HEPES, pH7.4, 5 mM MgCl2, 1 mM NaVO3, 0.001% Tween-20, 0.01% BSA and 1 mM DTT) and mixed homogeneously to be used as a 4* compound. The reaction buffer was used to formulate 2* TrkA, TrkB and TrkC kinases (purchased from Carna Biosciences 08-186, 08-187, 08-197, and the final concentrations thereof were 0.5 nM, 0.1 nM, and 1 nM, respectively) and 4* substrate mixture (ATP+TK peptide) (wherein the final concentrations of ATP were 40 μM, 50 μM, and 20 μM, respectively; TK peptide, HTRF® KinEASE™-TK, was purchased from Cisbio, and the final concentration thereof was 100 nM) for use. 2.5 μL of the 4* compound was added to a 384-well plate (OptiPlate-384, purchased from PerkinElmer), and then 5 μL of the 2* TrkA, TrkB and TrkC kinases were added, and mixed homogeneously by centrifugation. Then 2.5 μL of the 4* substrate mixture was added to initiate the reaction (the total reaction volume is 10 μL). The 384-well plate was placed in an incubator and incubated for 60 min at 23° C. Then the reaction was terminated by adding 5 μL of Eu3+ cryptate-labeled anti-phosphotyrosine antibody (HTRF® KinEASE™-TK, purchased from Cisbio), and 5 μL of Streptavidin-XL-665 (HTRF® KinEASE™-TK, purchased from Cisbio). After incubated for 1 hr in the incubator, the fluorescence values were read on Envision (purchased from PerkinElmer). The excitation wavelength was 320 nm, and the emission wavelengths for detection were 665 nm and 620 nm. The enzymatic activity was represented by a ratio of the two readout at the two emission wavelengths. The enzymatic activity for each compound was tested at 11 concentrations, and IC50 values of the compounds were obtained by calculating the data using GraFit6.0 software (Erithacus Software).

Sequence of TrkA kinase (P04629 33-796): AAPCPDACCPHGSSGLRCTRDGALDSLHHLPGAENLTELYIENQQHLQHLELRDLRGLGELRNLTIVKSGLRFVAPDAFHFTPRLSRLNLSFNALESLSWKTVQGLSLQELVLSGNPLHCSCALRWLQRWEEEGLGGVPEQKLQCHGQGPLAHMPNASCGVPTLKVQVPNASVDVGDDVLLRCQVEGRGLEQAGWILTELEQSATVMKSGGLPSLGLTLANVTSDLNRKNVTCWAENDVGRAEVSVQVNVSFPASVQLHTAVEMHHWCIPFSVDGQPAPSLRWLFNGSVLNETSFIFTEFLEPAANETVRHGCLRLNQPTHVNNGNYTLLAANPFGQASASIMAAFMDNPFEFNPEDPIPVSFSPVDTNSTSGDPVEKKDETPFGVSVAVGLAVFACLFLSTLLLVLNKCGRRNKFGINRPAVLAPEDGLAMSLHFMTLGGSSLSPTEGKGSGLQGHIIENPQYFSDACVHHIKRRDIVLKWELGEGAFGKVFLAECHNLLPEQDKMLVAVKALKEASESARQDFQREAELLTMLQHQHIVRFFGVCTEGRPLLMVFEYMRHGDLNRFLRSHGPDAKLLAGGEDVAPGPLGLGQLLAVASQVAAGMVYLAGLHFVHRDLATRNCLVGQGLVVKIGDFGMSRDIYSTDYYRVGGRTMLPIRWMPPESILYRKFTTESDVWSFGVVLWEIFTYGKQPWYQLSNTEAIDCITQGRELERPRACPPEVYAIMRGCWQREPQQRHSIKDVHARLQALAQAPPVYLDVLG

IC50 [nM] | Structure (SMILES)
< 1000 | NC(=O)c1c(N)nn2ccc(N3C[C@@H](O)CC3c3cc(F)ccc3F)nc12 (stereo in doubt) [Example 47, 2-amino-5-((2R,4S)-2-(2,5-difluorophenyl)-4-hydroxypyrrolidin-1-yl)pyrazolo[1,5-a]pyrimidine-3-carboxamide]
< 1 | CCOC(=O)c1c(N)nn2ccc(N3CCC[C@@H]3c3cc(F)ccc3F)nc12 [Example 1, ethyl (R)-2-amino-5-(2-(2,5-difluorophenyl)pyrrolidin-1-yl)pyrazolo[1,5-a]pyrimidine-3-carboxylate]
< 100 | Nc1nn2ccc(N3CCC[C@@H]3c3cc(F)ccc3F)nc2c1C(=O)O [Example 2, (R)-2-amino-5-(2-(2,5-difluorophenyl)pyrrolidin-1-yl)pyrazolo[1,5-a]pyrimidine-3-carboxylic Acid]
< 1 | CNC(=O)c1c(N)nn2ccc(N3CCC[C@@H]3c3cc(F)ccc3F)nc12 [Example 3, (R)-2-amino-5-(2-(2,5-difluorophenyl)pyrrolidin-1-yl)-N-methylpyrazolo[1,5-a]pyrimidine-3-carboxamide]
< 1 | CCOC(=O)c1c(N)nn2ccc(N3CCCC3c3cc(F)ccc3F)nc12 (centres unmarked) [Example 5, ethyl 2-amino-5-(2-(2,5-difluorophenyl)pyrrolidin-1-yl)pyrazolo[1,5-a]pyrimidine-3-carboxylate]
< 1 | NC(=O)c1c(N)nn2ccc(N3CCCC3c3cc(F)ccc3F)nc12 (centres unmarked) [Example 6, 2-amino-5-(2-(2,5-difluorophenyl)pyrrolidin-1-yl)pyrazolo[1,5-a]pyrimidine-3-carboxamide]
< 100 | CCOC(=O)c1c(NC(=O)NC)nn2ccc(N3CCCC3c3cc(F)ccc3F)nc12 (centres unmarked) [Example 7, ethyl 5-(2-(2,5-difluorophenyl)pyrrolidin-1-yl)-2-(3-methylureido)pyrazolo[1,5-a]pyrimidine-3-carboxylate]
< 25 | CCOC(=O)c1c(NC(C)=O)nn2ccc(N3CCC[C@@H]3c3cc(F)ccc3F)nc12 [Example 9, ethyl (R)-2-acetylamino-5-(2-(2,5-difluorophenyl)pyrrolidin-1-yl)pyrazolo[1,5-a]pyrimidine-3-carboxylate]
< 25 | Nc1nn2ccc(N3CCC[C@@H]3c3cc(F)ccc3F)nc2c1C(=O)N1CCC(O)C1 (stereo partly drawn) [Example 10, (2-amino-5-((R)-2-(2,5-difluorophenyl)pyrrolidin-1-yl)pyrazolo[1,5-a]pyrimidin-3-yl) (3-hydroxypyrrolidin-1-yl)methanone]
< 1 | Nc1nn2ccc(N3CCC[C@@H]3c3cc(F)ccc3F)nc2c1C(=O)NCCO [Example 13, (R)-2-amino-5-(2-(2,5-difluorophenyl)pyrrolidin-1-yl)-N-(2-hydroxyethyl)pyrazolo[1,5-a]pyrimidine-3-carboxamide]
< 1 | CN(C)CCNC(=O)c1c(N)nn2ccc(N3CCC[C@@H]3c3cc(F)ccc3F)nc12 [Example 19, (R)-2-amino-5-(2-(2,5-difluorophenyl)pyrrolidin-1-yl)-N-(2-(dimethylamino)ethyl)pyrazolo[1,5-a]pyrimidine-3-carboxamide]
< 1000 | CCOC(=O)c1c(NC)nn2ccc(N3CCC[C@@H]3c3cc(F)ccc3F)nc12 [Example 20, ethyl (R)-5-(2-(2,5-difluorophenyl)pyrrolidin-1-yl)-2-(methylamino)pyrazolo[1,5-a]pyrimidine-3-carboxylate]
< 500 | CNc1nn2ccc(N3CCC[C@@H]3c3cc(F)ccc3F)nc2c1C(N)=O [Example 21, (R)-5-(2-(2,5-difluorophenyl)pyrrolidin-1-yl)-2-(methylamino)pyrazolo[1,5-a]pyrimidine-3-carboxamide]
< 100 | CCNc1nn2ccc(N3CCC[C@@H]3c3cc(F)ccc3F)nc2c1C(=O)OCC [Example 22, ethyl (R)-5-(2-(2,5-difluorophenyl)pyrrolidin-1-yl)-2-(ethylamino)pyrazolo[1,5-a]pyrimidine-3-carboxylate]
< 100 | CCOC(=O)c1c(NCCN2CCOCC2)nn2ccc(N3CCC[C@@H]3c3cc(F)ccc3F)nc12 [Example 23, ethyl (R)-5-(2-(2,5-difluorophenyl)pyrrolidin-1-yl)-2-((2-morpholinylethyl)amino)pyrazolo[1,5-a]pyrimidine-3-carboxylate]
< 500 | Nc1cc2nc(N3CCCC3c3cc(F)ccc3F)ccn2n1 (centres unmarked) [Example 24, 5-(2-(2,5-difluorophenyl)pyrrolidin-1-yl)pyrazolo[1,5-a]pyrimidin-2-amine]

IC50 [nM] | Structure (SMILES)
< 100 | CCOC(=O)c1coc(-c2c(NCc3ccc(OC)cc3)nn3ccc(N4CCCC4c4cc(F)ccc4F)nc23)n1 (centres unmarked) [Example 26, ethyl 2-(5-(2-(2,5-difluorophenyl)pyrrolidin-1-yl)-2-((4-methoxybenzyl)amino)pyrazolo[1,5-a]pyrimidin-3-yl)oxazole-4-carboxylate]
< 25 | Cc1coc(-c2c(N)nn3ccc(N4CCCC4c4cc(F)ccc4F)nc23)n1 (centres unmarked) [Example 27]
< 25 | Cc1csc(-c2c(N)nn3ccc(N4CCCC4c4cc(F)ccc4F)nc23)n1 (centres unmarked) [Example 28]
< 1 | CCOC(=O)c1csc(-c2c(N)nn3ccc(N4CCCC4c4cc(F)ccc4F)nc23)n1 (centres unmarked) [Example 29, ethyl 2-(2-amino-5-(2-(2,5-difluorophenyl)pyrrolidin-1-yl)pyrazolo[1,5-a]pyrimidin-3-yl)thiazole-4-carboxylate]
< 1 | Nc1nn2ccc(N3CCCC3c3cc(F)ccc3F)nc2c1-c1nc(C(=O)N2CC[C@H](O)C2)cs1 (stereo partly drawn) [Example 30, (2-(2-amino-5-(2-(2,5-difluorophenyl)pyrrolidin-1-yl)pyrazolo[1,5-a]pyrimidin-3-yl)thiazol-4-yl)((S)-3-hydroxypyrrolidin-1-yl)methanone]
< 1 | NC(=S)c1c(N)nn2ccc(N3CCCC3c3cc(F)ccc3F)nc12 (centres unmarked) [Example 31, 2-amino-5-(2-(2,5-difluorophenyl)pyrrolidin-1-yl)pyrazolo[1,5-a]pyrimidine-3-thioamide]
< 25 | Nc1nn2ccc(N3CCCC3c3cc(F)ccc3F)nc2c1-c1cccc(N2CCOCC2)c1 (centres unmarked) [Example 33, 5-(2-(2,5-difluorophenyl)pyrrolidin-1-yl)-3-(3-morpholinylphenyl)pyrazolo[1,5-a]pyrimidin-2-amine]
< 1 | Cn1cc(-c2c(N)nn3ccc(N4CCC[C@@H]4c4cc(F)ccc4F)nc23)cn1 [Example 34]
< 1 | CCOC(=O)c1c(N)nn2ccc(N3C[C@@H](F)C[C@@H]3c3cc(F)ccc3F)nc12 [Example 35, ethyl 2-amino-5-((2R,4S)-2-(2,5-difluorophenyl)-4-fluoropyrrolidin-1-yl)pyrazolo[1,5-a]pyrimidine-3-carboxylate]
< 500 | CCOC(=O)c1c(N)nn2ccc(N3C[C@@H](F)C[C@H]3c3cc(F)ccc3F)nc12 [Example 37, ethyl 2-amino-5-((2S,4S)-2-(2,5-difluorophenyl)-4-fluoropyrrolidin-1-yl)pyrazolo[1,5-a]pyrimidine-3-carboxylate]
< 25 | CCOC(=O)c1c(N)nn2ccc(N3CC(F)(F)CC3c3cc(F)ccc3F)nc12 (centres unmarked) [Example 38, ethyl 2-amino-5-(2-(2,5-difluorophenyl)-4,4-difluoropyrrolidin-1-yl)pyrazolo[1,5-a]pyrimidine-3-carboxylate]
< 25 | CCOC(=O)c1c(N)nn2ccc(N3CC(=O)CC3c3cc(F)ccc3F)nc12 (centres unmarked) [Example 43, ethyl 2-amino-5-(2-(2,5-difluorophenyl)-4-oxopyrrolidin-1-yl)pyrazolo[1,5-a]pyrimidine-3-carboxylate]
< 25 | N#Cc1c(N)nn2ccc(N3C[C@@H](O)C[C@@H]3c3cc(F)ccc3F)nc12 [Example 44, 2-amino-5-((2R,4S)-2-(2,5-difluorophenyl)-4-hydroxypyrrolidin-1-yl)pyrazolo[1,5-a]pyrimidine-3-carbonitrile]
< 1 | Nc1nn2ccc(N3C[C@@H](F)C[C@@H]3c3cc(F)ccc3F)nc2c1C(=O)NCCO [Example 49, 2-amino-5-((2R,4S)-2-(2,5-difluorophenyl)-4-fluoropyrrolidin-1-yl)-N-(2-hydroxyethyl)pyrazolo[1,5-a]pyrimidine-3-carboxamide]
< 1 | Nc1nn2ccc(N3C[C@@H](F)C[C@@H]3c3cc(F)ccc3F)nc2c1C(=O)NOCCO [Example 50, 2-amino-5-((2R,4S)-2-(2,5-difluorophenyl)-4-fluoropyrrolidin-1-yl)-N-(2-hydroxyethoxy)pyrazolo[1,5-a]pyrimidine-3-carboxamide]
< 1 | Nc1nn2ccc(N3C[C@@H](F)C[C@@H]3c3cc(F)ccc3F)nc2c1C(=O)NC1CC1 [Example 51, 2-amino-N-cyclopropyl-5-((2R,4S)-2-(2,5-difluorophenyl)-4-fluoropyrrolidin-1-yl)pyrazolo[1,5-a]pyrimidine-3-carboxamide]

From patent US10829492B2, “Amino pyrazolopyrimidine compound used as neurotrophic factor tyrosine kinase receptor inhibitor” (CHIA TAI TIANQING PHARMACEUTICAL GROUP CO., LTD., priority 2016, dated 2020)
